Laboratory results taken from US10780061B2, “Composition comprising farnesol and use thereof” (Daegu Gyongbuk Institute of Science and Technology, priority 2014, dated 2020).

Key:
[1] = tested on: AAV-PARIS WT or C631S-introduced tibialis anterior muscles; test: SDH staining of muscles introduced with AAV-PARIS WT or AAV-PARIS C631S; assay type: in vivo, mouse; conditions: 5-month-old mice, farnesol diet 1 week, 4 days after virus
Description: 5-month-old C57BL/6 male mice (body weight of 22 g) are fed with a control diet or a farnesol-containing diet for 1 week, and then AAV-GFP, AAV-PARIS WT or AAV-PARIS C631S virus is injected into tibialis anterior muscles. Feeding conditions, not mentioned, are the same as in Section 2 of Example 2. After 4 days, the muscles are collected and histological staining is performed to analyze mitochondrial enzyme activity. The staining is performed by SDH enzyme activity staining. Viral transduction efficiency is evaluated by GFP fluorescence.

[2] = tested on: injured tibialis anterior muscles; test: Histological staining of cardiotoxin-injured tibialis anterior muscles of old animals; assay type: in vivo, mouse; conditions: 25-month-old mice, farnesol diet 2 weeks, 4 days after CTX injury
Description: 25-month-old mice are fed with a control diet or a farnesol-containing diet for 2 weeks, and then 2 ul of 10 uM cardiotoxin (CTX) per body weight (g) is directly injected into the muscle to induce muscle injury. After 4 days, muscles are frozen and sectioned, followed by histological staining.
Hematoxylin and eosin (H&E) staining and sirus red staining are used in histological staining. Because muscle fibrosis […] and muscle regeneration is active at 4 days after muscle injury, effect of farnesol administration may be determined by histological staining. H&E staining is performed to examine structural recovery of injury, and sirus red staining is performed to examine the presence of fibrosis. […] That is, the control old animal has more thicker fibrosis regions located between the fibers than the experimental old animal treated with farnesol.

[3] = Energy expenditure of old mice (Oxylet calorimetry); assay type: in vivo, mouse; conditions: farnesol diet 4 months
Description: 22-month-old female mice (weighing 30 g) are fed with a control diet and a farnesol diet for 4 months. That is, 22-month-old mice are fed for 4 months, and then 26-month-old mice are analyzed. […] The same mouse is used as a control group, except that it is fed with a diet containing no farnesol. Muscle strength, energy expenditure, glucose tolerance, and fat accumulation of each mouse are evaluated. […] To measure energy expenditures of old mice administered with farnesol, mice are bred in a measurement apparatus, Oxylet system (calorimetry apparatus, Panlab Harvard apparatus) for 2 days. A METABOLISM software connected with metabolic measurement modules is used for analysis of energy expenditure.

human PARIS (WT, C631S) [4] = biological target: T1, human PARIS (WT, C631S) (Homo sapiens, UniProt Q6NUN9, C631S); test: Immunoprecipitation of PARIS WT and PARIS C631S mutant in C2C12 myoblasts; assay type: cell-based; conditions: C2C12 with FLAG-PARIS C631S, 0.1 uM farnesol, 24 hours
T1 construct: Human full length PARIS cDNA (IMAGE: 30347892); expressed in transfected cells; host or cells: C2C12 myoblasts, pCMV-Tag2A (Stratagene)
T1 sequence (Q6NUN9 whole entry C631S): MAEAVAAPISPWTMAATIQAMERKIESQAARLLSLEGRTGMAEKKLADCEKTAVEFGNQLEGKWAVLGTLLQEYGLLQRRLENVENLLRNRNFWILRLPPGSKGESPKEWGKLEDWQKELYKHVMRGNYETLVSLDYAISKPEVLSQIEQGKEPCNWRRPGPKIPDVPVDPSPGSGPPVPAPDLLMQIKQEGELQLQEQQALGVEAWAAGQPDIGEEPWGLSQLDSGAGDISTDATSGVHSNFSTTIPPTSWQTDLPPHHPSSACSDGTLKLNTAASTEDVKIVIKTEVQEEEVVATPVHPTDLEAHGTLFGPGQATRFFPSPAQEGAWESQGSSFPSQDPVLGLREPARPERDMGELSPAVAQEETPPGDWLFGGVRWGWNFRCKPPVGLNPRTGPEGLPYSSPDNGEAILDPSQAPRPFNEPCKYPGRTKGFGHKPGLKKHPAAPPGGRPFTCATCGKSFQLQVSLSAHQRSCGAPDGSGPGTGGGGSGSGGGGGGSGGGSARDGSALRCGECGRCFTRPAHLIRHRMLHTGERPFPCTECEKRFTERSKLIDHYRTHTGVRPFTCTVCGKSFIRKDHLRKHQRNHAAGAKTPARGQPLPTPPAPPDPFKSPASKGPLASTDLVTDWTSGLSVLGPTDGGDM
Description: (§1) To examine whether cysteine residues of CGLS sequence (631-634) of an amino acid sequence (SEQ ID NO: 11) of human PARIS are farnesylation sites, a FLAG-PARIS wild-type (WT) gene or a FLAG-PARIS C631S mutant (hereinafter, referred to as “MT”) gene is introduced into C2C12 myoblasts in the presence of DMSO or 0.1 uM farnesol, and the gene is expressed in C2C12 myoblasts by culturing them in DMEM containing 10% FBS for 24 hours. Immunoprecipitation and promoter activity analysis of a cell lysate are performed. The site of amino acid sequence (SEQ ID NO: 10) of mouse PARIS corresponding to CGLS sequence (631-634) of the amino acid sequence (SEQ ID NO: 11) of human PARIS is residues at positions 638-641. This CGLS sequence is conserved in mammals as well as humans and mice, and thus C of CGLS which is located at the C-terminus is a farnesylation site regardless of the length of the sequence.
(§2) Human full length PARIS cDNA (IMAGE: 30347892; Open Biosystems) (SEQ ID NO: 9) is cloned into BamH1 and EcoR1 restriction sites of a mammalian gene expression vector, pCMV-Tag2A (Stratagene). The pCMV-Tag2A vector is a plasmid-derived mammalian expression vector for tagging proteins with an N-terminal FLAG epitope. A QuikChange site-directed mutagenesis kit (Stratagene) is used to prepare pCMV-PARIS C631S, in which a PARIS C631S gene mutant obtained by substituting serine for the cysteine residue at position 631 of human PARIS is cloned into BamHI and EcoRI restriction sites of pCMV-Tag2A (Stratagene). After preparation of the mutant gene, the gene is introduced into pCMV to prepare an overexpression vector. To prepare the PARIS C631S gene, a pair of primers (SEQ ID NOS: 12 and 13) is used. Thereafter, a nucleotide sequence of the PARIS C631S gene thus prepared is confirmed by automated DNA sequencing.
(§3) In the case of PARIS C631S mutant, no farnesylation occurs. […] In FIG. 5C, − represents C2C12 myoblasts introduced with no PARIS gene, and WT and MT represent C2C12 myoblasts introduced with the wild-type PARIS gene and the mutant PARIS gene, that is, PARIS C631S gene, respectively. […]

human PARIS (WT, C631S) [5] = biological target: T2, human PARIS (WT, C631S) (Homo sapiens, UniProt Q6NUN9); test: as above; assay type: cell-based; conditions: C2C12 with FLAG-PARIS WT, 0.1 uM farnesol, 24 hours
T2 construct: Human full length PARIS cDNA (IMAGE: 30347892); expressed in transfected cells; host or cells: C2C12 myoblasts, pCMV-Tag2A (Stratagene)
T2 sequence (Q6NUN9 whole entry C631S): as above
Description: as §1, §2, §3

[6] = Grip strength of old mice; assay type: in vivo; conditions: old mouse, farnesol diet 4 months, vs negative control old mouse
Description: 22-month-old female mice (weighing 30 g) are fed with a control diet and a farnesol diet for 4 months. That is, 22-month-old mice are fed for 4 months, and then 26-month-old mice are analyzed. […] The same mouse is used as a control group, except that it is fed with a diet containing no farnesol. Muscle strength, energy expenditure, glucose tolerance, and fat accumulation of each mouse are evaluated. […] To measure grip strength as an index of mouse muscle strength, a grip strength meter (Bioseb) is used. For measurement of grip strength of mouse, its front paws are allowed to grip the grid, and its tail is then pulled back steadily and horizontally. When the animal releases the grid, the value is used as grip strength. The maximal grip strength values of individual mice are measured 5 times, and mean values are obtained. Grip strength is expressed as a force (g, gram) per weight.

SMILES: CC(C)=CCC/C(C)=C/CC/C(C)=C/CO [farnesol, (2E,6E)-3,7,11-trimethyldodeca-2,6,10-trien-1-ol]
- reduction in mitochondrial enzyme activity (SDH), AAV-PARIS WT-introduced muscles [1]: inhibits a reduction
- percentage of blue and red stained muscle fibers (sirus red staining) [2]: remarkably reduced
- regenerative region and fibrotic area [2]: a widespread regenerative region and a narrow fibrotic area
- size of muscle fibers stained red (H&E staining) [2]: increased
- energy expenditure [3]: significantly increased
- PGC-1α level, PARIS C631S mutant (human PARIS (WT, C631S) [4]): does not affect
- PGC-1α level, PARIS WT (human PARIS (WT, C631S) [5]): PGC-1α increase
- farnesylation of PARIS WT (human PARIS (WT, C631S) [5]): increased
- grip strength [6]: significantly increased
